What was measured:
Dihydrofolate reductase [1] = biological target: T1, Dihydrofolate reductase (Rattus norvegicus, UniProt Q920D2)
T1 sequence (Q920D2 whole entry): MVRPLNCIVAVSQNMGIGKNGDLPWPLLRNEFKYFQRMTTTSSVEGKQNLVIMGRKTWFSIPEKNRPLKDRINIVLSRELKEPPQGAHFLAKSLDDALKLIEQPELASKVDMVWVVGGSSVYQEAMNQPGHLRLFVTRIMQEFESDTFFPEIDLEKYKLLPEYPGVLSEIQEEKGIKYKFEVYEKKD
Description: Inhibition of rat liver Dihydrofolate Reductase

[2] = biological target: T2, Bifunctional dihydrofolate reductase-thymidylate synthase (Toxoplasma gondii, UniProt Q07422)
T2 sequence (Q07422 whole entry): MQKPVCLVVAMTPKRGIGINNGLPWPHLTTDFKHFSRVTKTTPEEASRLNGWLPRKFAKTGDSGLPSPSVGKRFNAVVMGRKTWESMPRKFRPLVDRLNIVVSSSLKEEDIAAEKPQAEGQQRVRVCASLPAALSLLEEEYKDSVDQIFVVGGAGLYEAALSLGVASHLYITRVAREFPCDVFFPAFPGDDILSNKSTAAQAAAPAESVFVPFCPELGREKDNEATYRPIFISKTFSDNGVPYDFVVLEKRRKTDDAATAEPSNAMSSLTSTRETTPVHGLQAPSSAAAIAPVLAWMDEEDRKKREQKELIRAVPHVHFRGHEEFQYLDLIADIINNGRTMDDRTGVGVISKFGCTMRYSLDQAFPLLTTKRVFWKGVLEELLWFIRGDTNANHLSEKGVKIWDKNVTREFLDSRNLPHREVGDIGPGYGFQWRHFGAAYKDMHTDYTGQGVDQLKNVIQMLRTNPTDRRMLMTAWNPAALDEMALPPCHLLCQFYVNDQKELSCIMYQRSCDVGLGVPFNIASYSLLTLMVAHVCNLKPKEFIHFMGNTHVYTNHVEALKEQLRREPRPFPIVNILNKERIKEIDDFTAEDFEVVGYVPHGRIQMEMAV
Description: Inhibition of Toxoplasma gondii Dihydrofolate Reductase

Dihydrofolate reductase [3] = biological target: T3, Dihydrofolate reductase (Pneumocystis carinii, UniProt P16184)
T3 sequence (P16184 whole entry): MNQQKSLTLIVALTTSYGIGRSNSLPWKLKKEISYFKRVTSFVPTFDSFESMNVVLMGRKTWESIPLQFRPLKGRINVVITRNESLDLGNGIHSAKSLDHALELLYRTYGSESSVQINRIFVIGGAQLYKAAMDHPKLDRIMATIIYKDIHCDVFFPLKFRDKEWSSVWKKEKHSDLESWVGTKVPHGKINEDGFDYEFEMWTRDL
Description: Inhibition of Pneumocystis carinii Dihydrofolate Reductase

[4] = Selectivity ratio of IC50 (rat liver)/IC50 (Pneumocystis carinii)
[5] = Selectivity ratio of IC50 (rat liver)/IC50 (Toxoplasma gondii

Row | SMILES | IC50 (Dihydrofolate reductase [1]) | IC50 (Dihydrofolate reductase [3]) | Selectivity ratio [4] | IC50 [2] | Selectivity ratio [5]
1 | COc1ccc(OC)c(NCc2c(Br)sc3nc(N)nc(N)c23)c1 | 33 µM | > 100 µM |  | > 100 µM | 
2 | COc1cc(N(C)Cc2c(Br)sc3nc(N)nc(N)c23)cc(OC)c1OC | 28 µM | 31 µM | 0.88 | 127 µM | 
3 | COc1ccc(OC)c(N(C)Cc2c(Br)sc3nc(N)nc(N)c23)c1 | > 10 µM | > 10 µM |  | > 10 µM | 

The next lines start with results.

Row | IC50 (Dihydrofolate reductase [1]) | IC50 (Dihydrofolate reductase [3]) | Selectivity ratio [4] | SMILES | IC50 [2] | Selectivity ratio [5]
4 | 0.015 µM | 0.031 µM | 0.048 | COc1cc(Cc2cnc(N)nc2N)cc(OC)c1Br [BRODIMOPRIM] | 0.017 µM | 0.088
5 | 17 µM | 13 µM | 1.2 | COc1cc(NCc2c(Br)sc3nc(N)nc(N)c23)cc(OC)c1OC | 34 µM | 
6 | 10 µM | 7.5 µM | 1.4 | Nc1nc(N)c2c(CNc3cc(Cl)c(-n4cccc4)c(Cl)c3)c(Br)sc2n1 | 26 µM | 0.39
